Test results taken from article PMC7912279, “Preclinical Evaluation of ^99mTc-Labeled GRPR Antagonists maSSS/SES-PEG2-RM26 for Imaging of Prostate Cancer” (Pharmaceutics, 2021).

Tests used:
[1] = tested on: PC-3 xenografts; experiment: Biodistribution in tumor bearing mice; assay type: in vivo; settings: BALB/c nu/nu mice bearing PC-3 xenografts, 3 h pi
Procedure: Animals: All in vivo experiments were carried out on BALB/c nu/nu or NMRI mice provided by Scanbur A/S (Sollentuna, Sweden). All animal studies were approved by the Ethics Committee for Animal Research in Uppsala (Sweden), following the national legislation on the protection of laboratory animals (project identification code of approval 5/16, 26 February 2016). Prostate cancer xenografts expressing GRPR were established in BALB/c nu/nu mice by subcutaneous injection of PC-3 cell suspension in PBS (7 × 10^6 cells in 100 µL) four weeks before the experiment. Four to seven mice per data point were used in in vivo experiments, two mice per data point were used in metabolic analysis and SPECT/CT imaging experiments.
Biodistribution in tumor bearing mice: The comparison of biodistribution between the two radiolabeled peptides was evaluated in BALB/c nu/nu mice bearing PC-3 xenografts. Each mouse was injected with 40 pmol (30 kBq, mass of injected peptide was adjusted with unlabeled peptide) of either [^99mTc]Tc-maSSS-PEG2-RM26 or [^99mTc]Tc-maSES-PEG2-RM26. The mice were euthanized 3 h pi. Sample collection and activity measurements were done as described above. The biodistribution of [^99mTc]Tc-maSSS-PEG2-RM26 was further studied at 6 h pi following the same protocol. Additionally for [^99mTc]Tc-maSSS-PEG2-RM26, one group of xenograft bearing mice was injected with 40 pmol (30 kBq, mass of injected peptide was adjusted with unlabeled peptide) of labeled peptide with 5 nmol of unlabeled peptide and euthanized 3 h pi.

[2] = Octanol-water distribution coefficient (logD); assay type: physicochemical; settings: determined as previously described [35]
Procedure: To test the stability, the radiolabeled peptides were incubated with 300× molar excess of cysteine or with PBS at room temperature for 1 h. The octanol-water distribution coefficient (logD) was determined as previously described.

[3] = 40 pmol (30 kBq), gamma counter, 4-7 mice

SMILES: CC(C)C[C@H](NC(=O)C[C@H](O)[C@H](CC(C)C)NC(=O)[C@H](Cc1c[nH]cn1)NC(=O)CNC(=O)[C@@H](NC(=O)[C@H](C)NC(=O)[C@H](Cc1c[nH]c2ccccc12)NC(=O)[C@H](CCC(N)=O)NC(=O)[C@@H](Cc1ccccc1)NC(=O)COCCOCCNC(=O)[C@H](CO)NC(=O)[C@H](CCC(=O)O)NC(=O)[C@H](CO)NC(=O)CS)C(C)C)C(N)=O [[^99mTc]Tc-maSES-PEG2-RM26, metal not drawn]
- uptake, Blood [1, 3]: 0.15 ± 0.07 % IA/g
- uptake, Bone [1, 3]: 0.04 ± 0.02 % IA/g
- uptake, GI (gastrointestinal tract with content) [1, 3]: 46 ± 4 % IA
- uptake, Intestine [1, 3]: 1.1 ± 0.6 % IA/g
- uptake, Kidneys [1, 3]: 3 ± 2 % IA/g
- uptake, Liver [1, 3]: 1.1 ± 0.3 % IA/g
- uptake, Lung [1, 3]: 0.14 ± 0.07 % IA/g
- uptake, Muscle [1, 3]: 0.04 ± 0.03 % IA/g
- uptake, Pancreas [1, 3]: 2 ± 1 % IA/g
- uptake, Spleen [1, 3]: 0.11 ± 0.02 % IA/g
- uptake, Stomach [1, 3]: 0.9 ± 0.4 % IA/g
- uptake, Tumor [1, 3]: 2.9 ± 0.7 % IA/g
- Tumor-to-non-tumor ratio, Blood ([1]; 40 pmol): 26 ± 19
- Tumor-to-non-tumor ratio, Bone ([1]; 40 pmol): 84 ± 54
- Tumor-to-non-tumor ratio, Intestine ([1]; 40 pmol): 3 ± 2
- Tumor-to-non-tumor ratio, Kidneys ([1]; 40 pmol): 2 ± 2
- Tumor-to-non-tumor ratio, Liver ([1]; 40 pmol): 3.0 ± 0.8
- Tumor-to-non-tumor ratio, Lung ([1]; 40 pmol): 26 ± 16
- Tumor-to-non-tumor ratio, Muscle ([1]; 40 pmol): 90 ± 52
- Tumor-to-non-tumor ratio, Pancreas ([1]; 40 pmol): 1.5 ± 0.8
- Tumor-to-non-tumor ratio, Spleen ([1]; 40 pmol): 24 ± 10
- Tumor-to-non-tumor ratio, Stomach ([1]; 40 pmol): 4 ± 2
- logD [2]: -1.0
